Data taken from patent US20030129180A1, “Products and methods for treating microbial infections” (The Proctor & Gamble Company, priority 2001, published 2003).

Assays:
[1] = tested on: T. mentagrophytes; assay: Relative growth of pre-germinated arthrospores in ESD broth tubes; type: cell-based; design: key: −: - (no growth); relative scale from - (no growth) to +++ (maximal growth); relative scale from - (no growth) to +++ (maximal growth); +++ (maximal growth); conditions: clotrimazole control, 20 μ/ml per tube, 26° C.
Protocol: (§1) Purified arthrospore suspensions of T. mentagrophytes or T. rubrum (prepared as per L. R. Wright et al., 1983, J. Antimicrob. Chemotherapy 12:317-327), diluted to a concentration of 1×10^6 cfu/ml in Emmon's modification of Sabouraud Dextrose Broth (ESD—R. Atlas, 1997, Handbook of microbiological media, CRC Press Inc., Boca Raton, Fla.), are incubated for 6 hours at 26° C. or 30° C., respectively, to pre-germinate spores. Enzyme preparations of chitinase (Sigma Cat. No. C-1525) and β1-1,3-glucanase (Sigma Cat. No. L-2524) are diluted into 3 ml volumes of ESD in capped glass tubes, to final concentrations of each enzyme ranging from 0 to 100 ppm. Clotrimazole controls are also prepared, to a final concentration of 20 μ/ml per tube.
(§2) Each tube is then inoculated with 10 μl (1×10^4 cfu) of either the T. mentagrophytes or T. rubrum pre-germinated arthrospore suspension, followed by incubation on a shaker at 200 rpm, at 26° C. or 30° C., respectively, for a total of 41 hours.

[2] = tested on: T. rubrum; assay: as above; type: cell-based; design: key: −: - (no growth); relative scale from - (no growth) to +++ (maximal growth); relative scale from - (no growth) to +++ (maximal growth); +++ (maximal growth); conditions: clotrimazole control, 20 μ/ml per tube, 30° C.
Protocol: as §1, §2

Clc1ccccc1C(c1ccccc1)(c1ccccc1)n1ccnc1 [clotrimazole]
−: Growth, T. mentagrophytes, 18 hours ([1]; 18 hours) | Growth, T. mentagrophytes, 41 hours ([1]; 41 hours) | Growth, T. rubrum, 18 hours ([2]; 18 hours) | Growth, T. rubrum, 41 hours ([2]; 41 hours)
